Laboratory results from ChEMBL document CHEMBL5506042, “Discovery of the Clinical Candidate IDOR-1117-2520: A Potent and Selective Antagonist of CCR6 for Autoimmune Diseases” (J Med Chem, 2024).
≈ marks a conversion by molar mass, not a printed value.

How the values were obtained:
[1] = Intrinsic clearance in human liver microsomes at 1 uM measured for 15 mins in presence of NADPH regenerating system measured per mg protein by LC-MS/MS analysis; assay type: ADME, Microsome; conditions: read-out: CLH
[2] = AUC in Wistar rat at 100 mg/kg, po; assay type: ADME, organism-based; conditions: in vivo
[3] = AUC in Beagle dog at 1 mg/kg, iv; assay type: ADME, organism-based, Canis lupus familiaris; conditions: in vivo
[4] = Intrinsic clearance in dog liver microsomes at 1 uM measured for 15 mins in presence of NADPH regenerating system by LC-MS/MS analysis; assay type: ADME, Canis lupus familiaris, Microsome; conditions: read-out: CLH
Cytochrome P450 3A4 [5] = target: T1, Cytochrome P450 3A4 (Homo sapiens, UniProt P08684); assay: Time dependent inhibition of CYP3A4 (unknown origin); assay type: ADME
T1 sequence (P08684 whole entry): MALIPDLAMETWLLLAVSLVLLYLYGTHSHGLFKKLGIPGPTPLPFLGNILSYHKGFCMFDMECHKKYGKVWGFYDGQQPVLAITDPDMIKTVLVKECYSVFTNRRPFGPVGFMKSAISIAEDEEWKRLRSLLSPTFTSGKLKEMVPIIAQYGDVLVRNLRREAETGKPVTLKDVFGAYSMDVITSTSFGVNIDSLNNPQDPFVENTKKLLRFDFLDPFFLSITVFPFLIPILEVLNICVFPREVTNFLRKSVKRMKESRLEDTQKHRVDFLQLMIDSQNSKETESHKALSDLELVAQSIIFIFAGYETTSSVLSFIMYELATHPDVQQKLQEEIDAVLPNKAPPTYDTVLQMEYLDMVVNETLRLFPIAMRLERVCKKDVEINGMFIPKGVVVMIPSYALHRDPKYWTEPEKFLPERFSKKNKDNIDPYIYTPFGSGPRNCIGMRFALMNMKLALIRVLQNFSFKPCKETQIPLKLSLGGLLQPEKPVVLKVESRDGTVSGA

Cytochrome P450 2C9 = Cytochrome P450 2C9 (Homo sapiens, UniProt P11712); assay: Inhibition of CYP2C9 (unknown origin); assay type: ADME
Sequence of Cytochrome P450 2C9 (P11712 whole entry): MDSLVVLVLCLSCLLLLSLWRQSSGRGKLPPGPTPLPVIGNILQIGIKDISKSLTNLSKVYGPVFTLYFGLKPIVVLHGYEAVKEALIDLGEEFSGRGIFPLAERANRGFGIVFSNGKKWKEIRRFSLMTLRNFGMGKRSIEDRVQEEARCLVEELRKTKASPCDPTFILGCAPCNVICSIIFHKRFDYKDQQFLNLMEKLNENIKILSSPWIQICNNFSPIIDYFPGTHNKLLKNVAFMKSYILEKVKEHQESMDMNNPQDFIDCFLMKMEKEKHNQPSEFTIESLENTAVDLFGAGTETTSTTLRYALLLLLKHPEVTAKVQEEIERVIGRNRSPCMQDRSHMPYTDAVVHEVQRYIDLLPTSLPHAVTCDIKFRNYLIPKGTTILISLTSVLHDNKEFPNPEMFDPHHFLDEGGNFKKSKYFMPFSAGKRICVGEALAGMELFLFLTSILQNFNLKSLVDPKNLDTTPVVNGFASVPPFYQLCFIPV

[6] = Oral bioavailability in Wistar rat at 100 mg/kg; assay type: ADME, organism-based; conditions: in vivo
[7] = Half life in Wistar rat at 3 mg/kg, iv; assay type: ADME, organism-based; conditions: in vivo
[8] = Tmax in Beagle dog at 1 mg/kg, iv; assay type: ADME, organism-based, Canis lupus familiaris; conditions: in vivo
[9] = Oral bioavailability in Beagle dog at 10 mg/kg; assay type: ADME, organism-based, Canis lupus familiaris; conditions: in vivo
Cytochrome P450 2D6 = Cytochrome P450 2D6 (Homo sapiens, UniProt P10635); assay: Inhibition of CYP2D6 (unknown origin); assay type: ADME
Sequence of Cytochrome P450 2D6 (P10635 whole entry): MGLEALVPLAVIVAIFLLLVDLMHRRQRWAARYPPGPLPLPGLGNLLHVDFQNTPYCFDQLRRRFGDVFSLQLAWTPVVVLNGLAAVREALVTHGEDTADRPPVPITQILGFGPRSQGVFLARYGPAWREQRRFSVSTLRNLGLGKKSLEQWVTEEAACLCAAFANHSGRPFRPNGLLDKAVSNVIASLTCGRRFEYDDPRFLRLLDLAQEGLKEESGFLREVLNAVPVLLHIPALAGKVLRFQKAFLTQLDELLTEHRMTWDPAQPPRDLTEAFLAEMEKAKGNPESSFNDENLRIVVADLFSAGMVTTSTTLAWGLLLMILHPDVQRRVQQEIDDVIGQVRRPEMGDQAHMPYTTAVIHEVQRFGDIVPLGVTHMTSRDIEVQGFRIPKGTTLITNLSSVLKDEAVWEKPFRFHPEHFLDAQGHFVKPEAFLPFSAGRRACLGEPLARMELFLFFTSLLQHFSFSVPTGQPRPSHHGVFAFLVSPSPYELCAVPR

Cytochrome P450 3A4 [10] = target: T1, Cytochrome P450 3A4; assay: Inhibition of CYP3A4 (unknown origin); assay type: ADME
[11] = Clearance in Wistar rat at 3 mg/kg, iv; assay type: ADME, organism-based; conditions: in vivo
[12] = target: T2, Solute carrier organic anion transporter family member 1B1 (Homo sapiens, UniProt Q9Y6L6); assay: Inhibition of OATP1B1 (unknown origin)
T2 sequence (Q9Y6L6 whole entry): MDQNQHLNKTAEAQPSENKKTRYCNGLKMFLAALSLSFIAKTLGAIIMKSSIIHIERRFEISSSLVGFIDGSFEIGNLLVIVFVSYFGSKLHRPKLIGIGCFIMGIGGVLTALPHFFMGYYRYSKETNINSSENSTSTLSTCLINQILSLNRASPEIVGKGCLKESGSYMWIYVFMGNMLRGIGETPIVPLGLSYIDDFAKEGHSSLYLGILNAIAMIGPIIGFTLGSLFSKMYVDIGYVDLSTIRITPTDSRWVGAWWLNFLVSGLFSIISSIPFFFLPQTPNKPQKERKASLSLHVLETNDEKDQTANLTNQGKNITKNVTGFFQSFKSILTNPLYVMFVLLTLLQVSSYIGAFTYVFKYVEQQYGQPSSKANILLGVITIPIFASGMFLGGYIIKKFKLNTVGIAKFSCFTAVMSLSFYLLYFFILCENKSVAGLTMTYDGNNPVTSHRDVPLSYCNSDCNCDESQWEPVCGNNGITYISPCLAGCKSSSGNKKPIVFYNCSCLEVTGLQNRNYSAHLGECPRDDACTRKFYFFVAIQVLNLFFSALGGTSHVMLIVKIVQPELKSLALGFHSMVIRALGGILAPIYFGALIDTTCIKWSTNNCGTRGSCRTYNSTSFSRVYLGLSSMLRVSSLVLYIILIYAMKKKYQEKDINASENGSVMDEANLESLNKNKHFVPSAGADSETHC

[13] = Solubility of the compound in aqueous medium at pH <[…]; assay type: physicochemical
[14] = Clearance in Beagle dog at 1 mg/kg, iv; assay type: ADME, organism-based, Canis lupus familiaris; conditions: in vivo
[15] = target: ATP-dependent translocase ABCB1 (Homo sapiens, UniProt P08183); assay: Inhibition of human MDR1
Sequence of ATP-dependent translocase ABCB1 (P08183 whole entry): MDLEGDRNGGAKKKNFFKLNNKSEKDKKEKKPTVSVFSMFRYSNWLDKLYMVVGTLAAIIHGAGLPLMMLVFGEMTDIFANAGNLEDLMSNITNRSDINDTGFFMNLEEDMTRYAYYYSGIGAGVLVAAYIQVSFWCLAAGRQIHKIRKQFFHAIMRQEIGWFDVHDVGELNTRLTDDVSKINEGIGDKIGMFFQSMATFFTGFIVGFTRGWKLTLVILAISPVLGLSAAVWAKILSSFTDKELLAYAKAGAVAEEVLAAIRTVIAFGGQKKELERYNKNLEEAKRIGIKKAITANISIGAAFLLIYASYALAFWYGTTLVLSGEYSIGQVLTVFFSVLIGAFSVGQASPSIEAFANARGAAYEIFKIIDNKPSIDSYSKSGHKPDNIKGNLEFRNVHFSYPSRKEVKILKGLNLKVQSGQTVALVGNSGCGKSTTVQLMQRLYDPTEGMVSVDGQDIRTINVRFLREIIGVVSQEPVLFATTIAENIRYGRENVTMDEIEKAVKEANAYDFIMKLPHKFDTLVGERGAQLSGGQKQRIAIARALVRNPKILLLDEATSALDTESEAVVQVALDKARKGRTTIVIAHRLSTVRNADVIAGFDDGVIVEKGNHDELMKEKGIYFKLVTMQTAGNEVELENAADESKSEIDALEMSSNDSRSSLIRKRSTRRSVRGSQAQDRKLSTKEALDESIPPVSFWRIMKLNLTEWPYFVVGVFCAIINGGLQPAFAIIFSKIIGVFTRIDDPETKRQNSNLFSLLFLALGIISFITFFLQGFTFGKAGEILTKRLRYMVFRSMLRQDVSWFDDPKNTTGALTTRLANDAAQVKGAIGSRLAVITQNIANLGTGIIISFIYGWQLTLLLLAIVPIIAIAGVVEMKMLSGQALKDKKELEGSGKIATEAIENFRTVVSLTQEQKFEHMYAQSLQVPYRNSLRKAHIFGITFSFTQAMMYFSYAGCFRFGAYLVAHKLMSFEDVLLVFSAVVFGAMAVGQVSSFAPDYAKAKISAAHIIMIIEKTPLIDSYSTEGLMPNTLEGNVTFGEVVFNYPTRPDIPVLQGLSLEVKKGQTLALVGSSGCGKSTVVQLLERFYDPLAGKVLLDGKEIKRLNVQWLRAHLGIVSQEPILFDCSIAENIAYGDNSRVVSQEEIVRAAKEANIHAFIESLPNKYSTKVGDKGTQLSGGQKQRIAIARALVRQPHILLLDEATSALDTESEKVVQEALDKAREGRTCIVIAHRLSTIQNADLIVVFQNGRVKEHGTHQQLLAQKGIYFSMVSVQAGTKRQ

[16] = Cmax in Wistar rat at 100 mg/kg, po; assay type: ADME, organism-based; conditions: in vivo
HepaRG = assay: Cytotoxicity against human HepaRG cells assessed as leakage of intracellular LDH at 100 uM incubated for 24 hrs by spectrophotometry; assay type: toxicity, cell-based
[17] = Solubility of the compound at pH <[…] at 37 degC; assay type: physicochemical
[18] = Apparent permeability across apical to basolateral side in dog MDCK-II cells; assay type: ADME, cell-based, Canis lupus familiaris
[19] = Fraction unbound in dog plasma at 1 uM by rapid equilibrium dialysis based LC-MS/MS analysis; assay type: ADME, cell-free, Canis lupus familiaris
[20] = Volume of distribution at steady state in Beagle dog at 1 mg/kg, iv; assay type: ADME, organism-based, Canis lupus familiaris; conditions: in vivo, read-out: Vdss
[21] = target: T3, Solute carrier organic anion transporter family member 1B3 (Homo sapiens, UniProt Q9NPD5); assay: Inhibition of OATP1B3 (unknown origin)
T3 sequence (Q9NPD5 whole entry): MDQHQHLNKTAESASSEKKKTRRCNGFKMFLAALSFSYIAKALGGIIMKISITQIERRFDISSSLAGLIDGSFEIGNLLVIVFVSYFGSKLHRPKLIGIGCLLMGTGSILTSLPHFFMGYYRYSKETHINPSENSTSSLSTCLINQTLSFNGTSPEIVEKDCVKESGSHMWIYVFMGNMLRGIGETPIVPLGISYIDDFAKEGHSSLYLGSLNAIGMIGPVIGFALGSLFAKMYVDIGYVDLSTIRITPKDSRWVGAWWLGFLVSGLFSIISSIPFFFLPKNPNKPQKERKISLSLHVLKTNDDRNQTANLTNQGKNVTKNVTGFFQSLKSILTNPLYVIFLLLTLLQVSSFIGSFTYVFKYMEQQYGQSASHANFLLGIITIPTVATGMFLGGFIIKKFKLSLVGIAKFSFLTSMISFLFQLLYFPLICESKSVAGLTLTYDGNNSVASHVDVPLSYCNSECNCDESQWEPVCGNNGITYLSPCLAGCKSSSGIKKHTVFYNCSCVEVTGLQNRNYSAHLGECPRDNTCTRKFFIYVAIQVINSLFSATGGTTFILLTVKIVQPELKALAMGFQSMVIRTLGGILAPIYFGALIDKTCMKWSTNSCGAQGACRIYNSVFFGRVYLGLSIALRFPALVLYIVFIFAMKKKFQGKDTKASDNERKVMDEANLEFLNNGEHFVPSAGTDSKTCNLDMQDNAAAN

[22] = Volume of distribution at steady state in Wistar rat at 3 mg/kg, iv; assay type: ADME, organism-based; conditions: in vivo, read-out: Vdss
[23] = AUC in Beagle dog at 3 mg/kg, po; assay type: ADME, organism-based, Canis lupus familiaris; conditions: in vivo
[24] = AUC in Beagle dog at 10 mg/kg, po; assay type: ADME, organism-based, Canis lupus familiaris; conditions: in vivo
[25] = Fraction unbound in human plasma at 1 uM by rapid equilibrium dialysis based LC-MS/MS analysis; assay type: ADME, cell-free
[26] = Half life in Beagle dog at 1 mg/kg, iv; assay type: ADME, organism-based, Canis lupus familiaris; conditions: in vivo
[27] = AUC in Wistar rat at 3 mg/kg, iv; assay type: ADME, organism-based; conditions: in vivo
[28] = Intrinsic solubility of the compound at pH >11.5 using amorphous form of sample; assay type: physicochemical; conditions: read-out: Intrinsic_solubility
[29] = Tmax in Wistar rat at 100 mg/kg, po; assay type: ADME, organism-based; conditions: in vivo
[30] = Cmax in Beagle dog at 1 mg/kg, iv; assay type: ADME, organism-based, Canis lupus familiaris; conditions: in vivo
[31] = Tmax in Beagle dog at 3 mg/kg, po; assay type: ADME, organism-based, Canis lupus familiaris; conditions: in vivo
[32] = Intrinsic clearance in human hepatocytes in presence of ABT measured per million cells; assay type: ADME, cell-based, Hepatocyte; conditions: with ABT, read-out: CLH
[33] = Intrinsic clearance in human hepatocytes measured per million cells; assay type: ADME, cell-based, Hepatocyte; conditions: read-out: CLH
[34] = Oral bioavailability in Beagle dog at 3 mg/kg; assay type: ADME, organism-based, Canis lupus familiaris; conditions: in vivo
[35] = Cmax in Beagle dog at 3 mg/kg, po; assay type: ADME, organism-based, Canis lupus familiaris; conditions: in vivo
Cytochrome P450 3A4 [36] = target: T1, Cytochrome P450 3A4; assay: Induction of CYP3A4 (unknown origin); assay type: ADME

CC(C)c1ccc([C@](O)(c2cccc(-c3noc(C(C)(C)O)n3)c2)C2(C)CN(C)C2)cc1
microsomal CLint at […], 1 µM [1]: < 10 µL/min/mg
AUC [2]: 2770 ng·h/mL
AUC [3]: 436 ng·h/mL
microsomal CLint at […], 1 µM [4]: 17 µL/min/mg
TDI (Cytochrome P450 3A4 [5]): Not Active
IC50 (Cytochrome P450 2C9): > 50 µM
bioavailability [6]: 19%
half-life [7]: 216 min
Tmax [8]: 48 min
bioavailability [9]: 95%
IC50 (Cytochrome P450 2D6): 0.15 µM
IC50 (Cytochrome P450 3A4 [10]): > 50 µM
clearance [11]: 110 mL/min/kg
IC50 [12]: > 50 µM
solubility [13]: > 100000 µg/mL
clearance [14]: 38 mL/min/kg
IC50 [15]: 19 µM
Cmax [16]: 822 ng/mL
Activity (HepaRG): Non-Toxic
solubility [17]: > 10000 µg/mL
Papp A→B [18]: 0.3 ×10⁻⁶ cm/s
fraction unbound at 1 µM [19]: 0.33
Vd [20]: 11 L/kg
IC50 [21]: > 50 µM
Vd [22]: 23 L/kg
AUC [23]: 332 ng·h/mL
AUC [24]: 4160 ng·h/mL
fraction unbound at 1 µM [25]: 0.35
half-life [26]: 282 min
AUC [27]: 443 ng·h/mL
solubility [28]: 100 µg/mL (≈ 0.23 mM)
Tmax [29]: 18 min
Cmax [30]: 103 ng/mL
Tmax [31]: 48 min
hepatocyte CLint [32]: < 2 µL/min/1e6 cells
hepatocyte CLint [33]: 3.6 µL/min/1e6 cells
bioavailability [34]: 25%
Cmax [35]: 956 ng/mL
Activity (Cytochrome P450 3A4 [36]): Not Active
